The values below come from patent US4801596A, “Nitroxy amino propanols for treating heart and circulatory diseases” (Boehringer Mannheim GmbH, priority 1984, dated 1989).

For test [1], the system named is β-receptor. In words: β-blocking effectiveness: inhibition of isoprenaline-induced increase of the frequency in rabbits. Type of test: in vivo, rabbit. Particulars: i.v., isoprenaline 1 mcg/kg i.v.
The subject of test [2] is rat livers. In words: denitration rate in re-perfused rat livers (nitrate-like action). Particulars: rat liver re-perfused 4 min, equimolar 5×10^-5 M/l; freed NO2 determined in the perfusate; high values = fast denitration.

Where a name gives a salt, the structure may show the parent alone.

`CC(C)(C)NCC(O)COc1ccc(NC(=O)[C@H]2CC[C@H](O[N+](=O)[O-])CC2)cc1` (relative stereo) [2 (e), 1-[4-[[(t-4-nitroxy)-cyclohexyl]-r-1-carbonylamino]]-phenoxy-3-tert.-butylaminopropan-2-ol hydrochloride]: the “ID 50 fcor (dose causing 50% inhibition of the increase of the frequency through isoprenaline)” value in test [1] is reported as 4 006 mcg/kg. In test [2], the “Vrel (denitration rate in relation to isosorbide-5-mononitrate)” value (“Vrel” below) is recorded as 0.95. As for `CC(C)(C)NCC(O)COc1ccc(NC(=O)C[C@@H]2CCCC[C@H]2O[N+](=O)[O-])cc1` (relative stereo) [2 (g), 1-[4-[[(t-2-nitroxy)-cyclohexyl]-r-1-methylcarbonylamino] ]-phenoxy-3-tert.-butylaminopropan-2-ol hydrochloride], the “ID 50 fcor (dose causing 50% inhibition of the increase of the frequency through isoprenaline)” value in test [1] is given as 4 158 mcg/kg. The “Vrel” value in test [2] was 0.97.

With `CC(C)(C)NCC(O)COc1ccc(NC(=O)[C@H]2CC[C@H](O[N+](=O)[O-])CC2)cc1C#N` (relative stereo) [4 (c), 1-[2-cyano-4-[[(t-4-nitroxy)-cyclohexyl]-r-1-carbonylamino]]-phenoxy-3-tert.-butylaminopropan-2-ol benzoate], the “Vrel” value in test [2] came to 1.95. As to `CC(=O)c1cc(NC(=O)[C@H]2CC[C@H](O[N+](=O)[O-])CC2)ccc1OCC(O)CNC(C)(C)C` (relative stereo) [6 (c), 1-[2-methylcarbonyl-4-[[(t-4-nitroxy)-cyclohexyl]-r-1-carbonylamino]]-phenoxy-3-tert.-butylaminopropan-2-ol hydrochloride], the “ID 50 fcor (dose causing 50% inhibition of the increase of the frequency through isoprenaline)” value in test [1] is listed as 2 273 mcg/kg. Moreover, the “Vrel” value in test [2] worked out at 1.34. As to `CC(C)(C)NCC(O)COc1ccc(CC(=O)N[C@@H]2CCCC[C@H]2O[N+](=O)[O-])cc1` (relative stereo) [9 (d), trans-1-[4-[(2-nitroxycyclohexyl)-amino]-carbonylmethyl]-phenoxy-3-tert.-butylaminopropan-2-ol], the “Vrel” value in test [2] is 1.06. On to `CC(C)(C)NCC(O)COc1ccc(NC(=O)CCCCO[N+](=O)[O-])cc1` (centres unmarked) [2 (a), 1-[4-(4-nitroxybutyl)-carbonylamino]-phenoxy-3-tert.-butylaminopropan-2-ol fumarate], for which the “Vrel” value in test [2] was determined as 0.65. Turning to `CC(C)(C)NCC(O)COc1ccc(NC(=O)C(C)(C)CO[N+](=O)[O-])cc1` (centres unmarked) [2 (b), 1-[4-(2-methyl-1-nitroxy-2-propyl)-carbonylamino]-phenoxy-3-tert.-butylaminopropan-2-ol hydrochloride], the “ID 50 fcor (dose causing 50% inhibition of the increase of the frequency through isoprenaline)” value in test [1] is 4 164 mcg/kg. Besides, the “Vrel” value in test [2] is reported as 0.68.

In the case of `CC(C)(C)NCC(O)COc1ccc(NC(=O)CCCO[N+](=O)[O-])cc1C#N` (centres unmarked) [4 (a), 1-[2-cyano-4-(3-nitroxypropyl)-carbonylamino]-phenoxy-3-tert.-butylaminopropan-2-ol hydrochloride], the “ID 50 fcor (dose causing 50% inhibition of the increase of the frequency through isoprenaline)” value in test [1] was 180 µg/kg. In test [2], the “Vrel” value was 0.74. `CC(=O)c1cc(NC(=O)CCCO[N+](=O)[O-])ccc1OCC(O)CNC(C)(C)C` (centres unmarked) [6 (a), 1-[2-methylcarbonyl-4-(3-nitroxypropyl)-carbonylamino]-phenoxy-3-tert.-butylaminopropan-2-ol fumarate]: the “ID 50 fcor (dose causing 50% inhibition of the increase of the frequency through isoprenaline)” value in test [1] was found to be 886 µg/kg. Besides, the “Vrel” value in test [2] was determined as 0.51. The like results for `CC(CNC(=O)Cc1ccc(OCC(O)CNC(C)(C)C)cc1)O[N+](=O)[O-]` (centres unmarked) [9 (a), 1-[4-[(2-nitroxypropyl)-amino]-carbonylmethyl]-phenoxy-3-tert.-butylaminopropan-2-ol hemifumarate] were, in that order, 3 147 mcg/kg and 0.34. For the compound `CN(CC(C)(C)CO[N+](=O)[O-])C(=O)Cc1ccc(OCC(O)CNC(C)(C)C)cc1` (centres unmarked) [9 (c), 1-[4-[[N--(2,2-dimethyl-3-nitroxypropyl)-N--methyl]-amino]-carbonylmethyl]-phenoxy-3-tert.-butylaminopropan-2-ol fumarate], the “Vrel” value in test [2] was determined as 1.63. As for `CC(C)(C)NCC(O)COc1ccc(CC(=O)N2CCC(O[N+](=O)[O-])CC2)cc1` (centres unmarked) [9 (f), 1-[4-(4-nitroxy-1-piperidino)-carbonylmethyl]-phenoxy-3-tert.-butylaminopropan-2-ol fumarate], in test [2], the “Vrel” value is given as 1.23. For `CC(C)(C)NCC(O)COc1ccc(CC(=O)N2CCCC(CO[N+](=O)[O-])C2)cc1` (centres unmarked) [9 (g), 1-[4-(3-nitroxymethyl-1-piperidino)-carbonylmethyl]-phenoxy-3-tert.-butylaminopropan-2-ol fumarate], in test [2], the “Vrel” value was found to be 1.69. Consider `CC(C)(C)NCC(O)COc1ccc(CC(=O)N2CCC(CO[N+](=O)[O-])CC2)cc1` (centres unmarked) [9 (h), 1-[4-(4-nitroxymethyl-1-piperidino)-carbonylmethyl]-phenoxy-3-tert.-butylaminopropan-2-ol fumarate], for which the “ID 50 fcor (dose causing 50% inhibition of the increase of the frequency through isoprenaline)” value in test [1] was 1 207 mcg/kg. Further, in test [2], the “Vrel” value turned out to be 1.06. With `C#CC(C)(C)NCC(O)COc1ccc(CC(=O)N2CCC(CO[N+](=O)[O-])CC2)cc1` (centres unmarked) [9 (j), 3-(2-methyl-3-butyn-2-yl)-amino-1-[4-(4-nitroxymethyl-1-piperidino)-carbonylmethyl]-phenoxypropan-2-ol fumarate], in test [2], the “Vrel” value stood at 1.94.

Regarding `CC(C)(C)NCC(O)COc1ccc(NC(=O)CCCO[N+](=O)[O-])cc1` (centres unmarked) [Example 1, 1-[4-(3-Nitroxypropyl)-carbonylamino]-phenoxy-3-tert.-butylaminopropan-2-olhydrochloride], in test [1], the “ID 50 fcor (dose causing 50% inhibition of the increase of the frequency through isoprenaline)” value is listed as 2 326 mcg/kg. Further, the “Vrel” value in test [2] is on record as 0.77. Turning to `CCOC(=O)c1cc(NC(=O)CCCO[N+](=O)[O-])ccc1OCC(O)CNC(C)(C)C` (centres unmarked) [Example 7, 1-[2-Ethoxycarbonyl-4-(3-nitroxypropyl)-carbonylamino]phenoxy-3-tert.-butylaminopropan-2-ol cyclamate], in test [1], the “ID 50 fcor (dose causing 50% inhibition of the increase of the frequency through isoprenaline)” value is recorded as 1 619 mcg/kg. The “Vrel” value in test [2] was 1.72.

Turning to `CC(C)(C)NCC(O)COc1ccc(CC(=O)NCCCO[N+](=O)[O-])cc1` (centres unmarked) [Example 8, 1-[4-[(3-Nitroxypropyl)-amino]-carbonylmethyl]-phenoxy-3-tert.-butylaminopropan-2-ol fumarate], the “Vrel” value in test [2] was 0.48. On to `O=[N+]([O-])O[C@@H]1CO[C@H]2[C@@H]1OC[C@@H]2O` [Isosorbide-5-mononitrate, isosorbide-5-mononitrate, reference compound], for which, in test [2], the “Vrel” value is on record as 0.86.
